According to patent US4971970A, “Benzoheterocyclic compounds” (Otsuka Pharmaceutical Company, Limited, priority 1988, dated 1990):

System: Escherichia coli No. 29 strain
Experiment: Antimicrobial activity in vivo (ED50 in mice infected with Escherichia coli No. 29)
Conditions: mice (10 per group), i.p. infection with E. coli No. 29 (10^5 -10^6 cells/mouse) in mucin, compound oral one hour after infection, observed one week, Probit method, read-out: 50 % effective dose (ED50)
Experimental: Experiment (Antimicrobial activity in vivo)
Escherichia coli No. 29 strain was cultured in a nutrient medium at 37° C., and the culture broth was diluted with the same medium and thereto was added an equivolume of 6 % mucin solution to prepare a cell solution.
The cell solution thus prepared (0.5 ml) (e. coli cells; 10^5 -10^6 cells/mouse) was intraperitoneally administered to mice (10 mice per group). […] From the number of dead mice and the survival mice, the 50 % effective dose (ED50) of the test compound was calculated by Probit method.

Structure (SMILES): Cc1c(F)c(N2CCNC(C)C2)cc2c1c(=O)c(C=O)cn2C1CC1 (stereo not shown) [1-Cyclopropyl-6-fluoro-7-(3-methyl-1-piperazinyl)-5-methyl-3-formyl-1,4-dihydro-4-oxoquinoline]
- ED50: 0.331 mg/kg
